Source: US20260327204A1, “DEGRADERS OF CYCLIN-DEPENDENT KINASE 12/13, COMPOSITIONS, AND USES THEREOF” (ZHEJIANG UNIVERSITY, priority 2023, published 2026)
Read-outs that look alike come from different tables or passages of the source.

What was measured:
[1] = test system: tumor cells MDA-MB-231, MV4-11, and KASUMI-1 and normal cells L-02 and HK-2; assay: Survival of tumor and normal cells (CCK8 / SRB); format: cell-based; conditions: 72 h, concentration gradient, FIG. 10
Protocol: The proliferation inhibition of compounds on leukemia cell lines MV4-11 and KASUMI-1 was determined using the CCK8 assay, while the inhibition on solid tumor cell lines MDA-MB-231 was determined using the Sulforhodamine B (SRB) assay.
CCK8 Assay: First, MV4-11 and KASUMI-1 cells were seeded in a 96-well plate at a density of 5,000 cells per well. Then, a concentration gradient (0.03 μM-10 μM) of the compounds was administered for 72 h, with DMSO solvent serving as the negative control. At the end of the treatment, 10 μL of CCK8 reagent was added to each well. The plate was incubated for 4 hours at 37 °C in the dark. After mixing, the absorbance value was measured at 450 nm.
SRB Assay: First, MDA-MB-231, L-02, and HK-2 cells were seeded in a 96-well plate at a density of 3,000 cells per well. After 8-12 h of cell adhesion, a concentration gradient (62.5 nM-10 μM) of the compounds was administered for 72 h, with DMSO solvent serving as the negative control. At the end of the treatment, the cells were washed once with 70 μL of PBS, then fixed with 70 μL of 10% trichloroacetic acid at 4 °C for 1 h. After rinsing with tap water and drying in an oven, 70 μL of SRB staining solution was added to each well for 20 min at room temperature. […] Finally, 150 μL of 10 mM Tris-base dissolving solution was added, and the plate was shaken for 15 min before the absorbance value was measured at 540 nm.

[2] = molecular target: T1, hERG channel (Homo sapiens, UniProt Q12809); assay: Manual patch-clamp of hERG channel currents stably expressed in HEK293 cells; format: cell-based; conditions: 0.3 μM-30 μM, HEK293, room temperature
T1 construct: manual patch clamp of tail current
Protocol: III. Manual Patch-Clamp Detection of the Effect of Compounds on hERG Channel Currents Stably Expressed in HEK293 Cells
A 30 mM stock solution of compound 147 was prepared in DMSO. The stock solution was serially diluted with DMSO to prepare secondary stock solutions of 10 mM, 3 mM, 1 mM, and 0.3 mM. 10 μL of the secondary stock solution was diluted in 10 mL of extracellular solution to prepare final concentrations of 30 μM, […], 3 μM, 1 μM, and 0.3 μM for electrophysiological detection. A 10 mM stock solution of the positive control, cisapride, was prepared in DMSO. The stock solution was serially diluted with DMSO to prepare secondary stock solutions of 1000 μM, 100 μM, 10 μM, 1 μM, and 0.1 μM. 10 μL of the secondary stock solution was diluted in 10 mL of extracellular solution to prepare final concentrations of 1000 nM, 100 nM, 10 nM, 1 nM, and 0.1 nM for electrophysiological detection. […]
d. […] The current was recorded once every 15 s.
e. The hERG potassium channel current was recorded at room temperature before drug addition. […]
The original data hERG tail current peak values were extracted from the PatchMaster software. The current inhibition rate was calculated using the following formula:
The mean and standard error were calculated for each concentration. […]

[3] = test system: CCNK; assay: Reversal of CCNK degradation by proteasome inhibitor MG132, Western blot; format: cell-based; conditions: MDA-MB-231, 24 h treatment, MG132 added 12 h before sample collection
Protocol: (§1) • Cell lines: HCT-116, Jurkat, or MDA-MB-231 • Culture medium: DMEM/RIPM-1640+10% Hyclone serum • Compound dissolution method: The compounds (small molecule conjugates as shown in Formulae 101-147, MG132) were dissolved in DMSO to prepare a 50 mM stock solution and then diluted to the corresponding concentrations.
(§2) (3) Compound treatment: The 50 mM compound stock solution was diluted with cell culture medium to a final concentration of 0.01 μM-3 μM. Cells were incubated in a 37 °C incubator with 5% CO2 for 3 h-48 h. The DMSO group served as the negative control.
In the figures, CDK12, CDK13, and CCNK are the target proteins under study, and β-Actin and GAPDH are the internal reference proteins. Internal reference proteins are used to indicate the total protein amount in each experimental group for quantitative analysis.

[4] = molecular target: T2, CDK12 (Homo sapiens, UniProt Q9NYV4); assay: Reversal of CDK12 degradation by proteasome inhibitor MG132, Western blot; format: cell-based; parameters: endogenous in cells; conditions: MDA-MB-231, 24 h treatment, MG132 added 12 h before sample collection
Protocol: as §1, §2

[5] = molecular target: T3, CDK13 (Homo sapiens, UniProt Q14004); assay: Reversal of CDK13 degradation by proteasome inhibitor MG132, Western blot; format: cell-based; parameters: endogenous in cells; conditions: MDA-MB-231, 24 h treatment, MG132 added 12 h before sample collection
Protocol: as §1, §2

[6] = In vivo pharmacokinetics in mice; conditions: mouse, plasma, ip, 30 mg/kg, intraperitoneal
[7] = molecular target: T3, CDK13; assay: Western blot degradation of CDK13 (Example 3); format: cell-based; parameters: degradation of CDK12/13 protein in leukemia cells KASUMI-1, MV4-11, and Jurkat; endogenous in cells
[8] = molecular target: T2, CDK12; assay: Western blot degradation of CDK12 (Example 3); format: cell-based; parameters: degradation of CDK12/13 protein in leukemia cells KASUMI-1, MV4-11, and Jurkat; endogenous in cells

T3 sequence (Q14004 whole entry): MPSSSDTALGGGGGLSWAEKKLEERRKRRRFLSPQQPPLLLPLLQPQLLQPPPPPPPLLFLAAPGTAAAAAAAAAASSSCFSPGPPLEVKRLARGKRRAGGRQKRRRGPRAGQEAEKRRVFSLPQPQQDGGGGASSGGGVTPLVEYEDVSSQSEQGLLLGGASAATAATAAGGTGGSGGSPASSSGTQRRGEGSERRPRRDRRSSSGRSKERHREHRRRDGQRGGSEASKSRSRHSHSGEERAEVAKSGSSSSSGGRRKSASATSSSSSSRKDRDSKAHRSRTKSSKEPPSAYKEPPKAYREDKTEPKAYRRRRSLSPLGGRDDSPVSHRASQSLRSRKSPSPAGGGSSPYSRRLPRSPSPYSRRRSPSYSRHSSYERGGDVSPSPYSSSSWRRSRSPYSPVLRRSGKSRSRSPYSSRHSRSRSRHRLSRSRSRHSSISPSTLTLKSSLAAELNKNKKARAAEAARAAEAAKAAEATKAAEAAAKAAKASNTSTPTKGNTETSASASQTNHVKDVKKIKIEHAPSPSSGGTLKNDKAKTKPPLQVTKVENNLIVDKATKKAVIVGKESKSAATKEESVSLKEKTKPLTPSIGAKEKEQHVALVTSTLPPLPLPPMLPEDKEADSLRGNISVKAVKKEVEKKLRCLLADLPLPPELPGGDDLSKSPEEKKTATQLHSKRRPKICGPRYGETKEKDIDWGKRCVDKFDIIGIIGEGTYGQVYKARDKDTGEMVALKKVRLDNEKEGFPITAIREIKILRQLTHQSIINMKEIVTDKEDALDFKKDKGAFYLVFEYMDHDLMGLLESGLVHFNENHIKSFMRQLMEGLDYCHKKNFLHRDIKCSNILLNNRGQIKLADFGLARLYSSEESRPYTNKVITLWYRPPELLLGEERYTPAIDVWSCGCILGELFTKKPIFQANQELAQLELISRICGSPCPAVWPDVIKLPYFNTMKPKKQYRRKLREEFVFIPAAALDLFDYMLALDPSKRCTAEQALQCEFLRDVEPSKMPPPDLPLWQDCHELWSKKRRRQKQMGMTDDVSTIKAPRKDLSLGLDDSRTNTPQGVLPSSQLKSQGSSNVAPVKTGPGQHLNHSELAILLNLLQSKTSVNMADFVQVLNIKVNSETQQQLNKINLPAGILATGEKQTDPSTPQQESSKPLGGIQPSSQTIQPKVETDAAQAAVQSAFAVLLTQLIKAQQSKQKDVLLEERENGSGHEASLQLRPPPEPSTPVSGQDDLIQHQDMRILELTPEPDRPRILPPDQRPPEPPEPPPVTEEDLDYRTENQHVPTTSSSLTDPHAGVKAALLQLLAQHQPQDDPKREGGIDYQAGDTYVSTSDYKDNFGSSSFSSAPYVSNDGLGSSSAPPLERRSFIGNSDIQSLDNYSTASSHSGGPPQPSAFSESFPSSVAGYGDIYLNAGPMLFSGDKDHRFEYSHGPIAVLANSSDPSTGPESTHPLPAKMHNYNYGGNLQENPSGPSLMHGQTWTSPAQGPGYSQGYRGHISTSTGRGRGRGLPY
T3 sequence (O75909 whole entry partner): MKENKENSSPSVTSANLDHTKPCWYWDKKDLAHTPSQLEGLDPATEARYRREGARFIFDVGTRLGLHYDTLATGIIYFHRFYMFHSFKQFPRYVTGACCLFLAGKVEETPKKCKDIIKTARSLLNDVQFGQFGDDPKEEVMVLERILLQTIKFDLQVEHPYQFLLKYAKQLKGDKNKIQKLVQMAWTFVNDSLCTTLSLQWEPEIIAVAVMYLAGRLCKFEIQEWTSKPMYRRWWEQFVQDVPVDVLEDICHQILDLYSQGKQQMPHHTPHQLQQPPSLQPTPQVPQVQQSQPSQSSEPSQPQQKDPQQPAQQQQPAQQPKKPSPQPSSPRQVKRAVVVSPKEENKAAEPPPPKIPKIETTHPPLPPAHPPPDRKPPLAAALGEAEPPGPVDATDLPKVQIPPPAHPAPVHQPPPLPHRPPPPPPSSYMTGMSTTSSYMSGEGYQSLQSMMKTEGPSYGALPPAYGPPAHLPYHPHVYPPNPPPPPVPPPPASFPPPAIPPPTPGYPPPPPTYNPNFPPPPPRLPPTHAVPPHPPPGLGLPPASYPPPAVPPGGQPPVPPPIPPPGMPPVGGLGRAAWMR
T2 sequence (Q9NYV4 whole entry): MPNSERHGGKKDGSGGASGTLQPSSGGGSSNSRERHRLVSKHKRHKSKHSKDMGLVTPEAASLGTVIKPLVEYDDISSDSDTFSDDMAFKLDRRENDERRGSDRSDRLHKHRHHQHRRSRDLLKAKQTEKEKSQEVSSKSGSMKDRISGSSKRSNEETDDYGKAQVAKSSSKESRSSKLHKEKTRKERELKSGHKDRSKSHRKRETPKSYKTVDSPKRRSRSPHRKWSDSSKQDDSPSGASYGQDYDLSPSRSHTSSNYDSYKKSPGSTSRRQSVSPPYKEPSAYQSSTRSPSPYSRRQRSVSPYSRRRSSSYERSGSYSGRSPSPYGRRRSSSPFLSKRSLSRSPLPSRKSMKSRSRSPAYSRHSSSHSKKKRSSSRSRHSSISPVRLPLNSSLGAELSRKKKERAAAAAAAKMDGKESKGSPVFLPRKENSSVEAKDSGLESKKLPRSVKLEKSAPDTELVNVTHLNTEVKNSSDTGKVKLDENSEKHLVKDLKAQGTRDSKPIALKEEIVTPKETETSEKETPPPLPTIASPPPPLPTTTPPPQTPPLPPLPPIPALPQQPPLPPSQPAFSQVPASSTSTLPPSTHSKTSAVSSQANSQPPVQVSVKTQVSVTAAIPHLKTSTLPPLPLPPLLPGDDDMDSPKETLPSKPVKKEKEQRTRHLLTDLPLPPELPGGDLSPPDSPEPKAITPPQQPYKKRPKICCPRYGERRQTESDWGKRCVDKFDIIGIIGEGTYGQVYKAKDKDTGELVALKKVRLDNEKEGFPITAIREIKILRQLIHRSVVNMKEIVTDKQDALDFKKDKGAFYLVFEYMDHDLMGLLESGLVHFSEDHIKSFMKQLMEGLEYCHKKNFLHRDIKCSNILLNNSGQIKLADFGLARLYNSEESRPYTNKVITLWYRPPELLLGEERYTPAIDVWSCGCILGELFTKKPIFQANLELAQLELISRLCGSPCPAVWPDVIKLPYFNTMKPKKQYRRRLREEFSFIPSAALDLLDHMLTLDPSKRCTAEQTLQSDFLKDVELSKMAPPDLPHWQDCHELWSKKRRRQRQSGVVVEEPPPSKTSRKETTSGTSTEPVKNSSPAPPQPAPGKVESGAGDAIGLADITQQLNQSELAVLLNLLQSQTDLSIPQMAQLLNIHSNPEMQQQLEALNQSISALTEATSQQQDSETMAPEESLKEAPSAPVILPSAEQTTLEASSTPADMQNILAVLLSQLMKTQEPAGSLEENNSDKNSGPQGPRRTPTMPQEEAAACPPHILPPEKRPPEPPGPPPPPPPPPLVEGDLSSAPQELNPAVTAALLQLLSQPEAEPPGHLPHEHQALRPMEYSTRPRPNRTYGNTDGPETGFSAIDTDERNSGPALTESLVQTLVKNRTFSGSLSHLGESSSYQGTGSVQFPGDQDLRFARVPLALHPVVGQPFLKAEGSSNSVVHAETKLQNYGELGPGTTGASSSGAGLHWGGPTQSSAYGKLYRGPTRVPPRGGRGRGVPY
T2 sequence (O75909 whole entry partner): as the sequence (O75909 whole entry partner) above
T1 sequence (Q12809 whole entry): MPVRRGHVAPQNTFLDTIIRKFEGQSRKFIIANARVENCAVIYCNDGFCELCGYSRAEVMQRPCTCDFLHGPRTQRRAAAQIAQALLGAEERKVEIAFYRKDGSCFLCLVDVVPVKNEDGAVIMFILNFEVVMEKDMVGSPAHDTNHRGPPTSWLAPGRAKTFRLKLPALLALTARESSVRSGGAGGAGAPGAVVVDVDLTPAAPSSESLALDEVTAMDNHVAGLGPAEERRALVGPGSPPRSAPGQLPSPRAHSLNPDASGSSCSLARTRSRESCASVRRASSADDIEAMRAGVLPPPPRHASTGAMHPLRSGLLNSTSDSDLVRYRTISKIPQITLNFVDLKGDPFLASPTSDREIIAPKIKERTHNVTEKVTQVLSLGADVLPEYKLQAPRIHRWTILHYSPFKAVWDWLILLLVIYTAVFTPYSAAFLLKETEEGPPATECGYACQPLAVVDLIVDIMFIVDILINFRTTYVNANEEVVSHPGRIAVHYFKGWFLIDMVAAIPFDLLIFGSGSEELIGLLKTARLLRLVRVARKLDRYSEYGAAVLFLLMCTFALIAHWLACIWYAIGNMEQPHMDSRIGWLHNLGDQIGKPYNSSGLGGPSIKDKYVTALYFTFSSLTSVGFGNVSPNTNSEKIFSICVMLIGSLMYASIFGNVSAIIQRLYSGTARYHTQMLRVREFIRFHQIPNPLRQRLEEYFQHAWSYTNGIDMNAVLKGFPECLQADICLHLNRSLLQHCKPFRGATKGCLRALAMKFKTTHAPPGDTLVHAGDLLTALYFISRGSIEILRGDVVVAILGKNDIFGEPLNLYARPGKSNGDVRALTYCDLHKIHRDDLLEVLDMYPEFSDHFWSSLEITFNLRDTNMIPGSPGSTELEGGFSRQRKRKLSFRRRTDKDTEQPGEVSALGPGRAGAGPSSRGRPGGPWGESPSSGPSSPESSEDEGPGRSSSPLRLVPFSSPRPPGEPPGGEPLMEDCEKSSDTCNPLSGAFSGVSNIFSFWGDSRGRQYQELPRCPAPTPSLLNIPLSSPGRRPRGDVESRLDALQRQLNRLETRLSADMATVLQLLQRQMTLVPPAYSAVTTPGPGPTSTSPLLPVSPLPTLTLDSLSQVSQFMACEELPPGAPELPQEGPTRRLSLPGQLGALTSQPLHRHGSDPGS

SMILES	proliferation inhibitory activity on normal and tumor cells [1]	inhibitory effect on the hERG channel [2]	reversal of CCNK degradation by MG132 [3]	reversal of CDK12 degradation by MG132 [4]	reversal of CDK13 degradation by MG132 [5]	half-life [6]	DC50 ([7]; DC50 classes, cell line not given, read-out: CDK13 degradation Activity)	DC50 ([7]; HCT116, colorectal cancer cells, read-out: CDK13 DC50)	DC50 ([7]; KASUMI-1, leukemia cells, read-out: CDK13 DC50)	DC50 ([7]; MDA-MB-231, breast cancer cells, read-out: CDK13 DC50)	DC50 ([8]; DC50 classes, cell line not given, read-out: CDK12 degradation Activity)	DC50 ([8]; HCT116, colorectal cancer cells, read-out: CDK12 DC50)	DC50 ([8]; KASUMI-1, leukemia cells, read-out: CDK12 DC50)	DC50 ([8]; MDA-MB-231, breast cancer cells, read-out: CDK12 DC50)
CN(C)C/C=C/C(=O)Nc1ccc(C(=O)N2CCC[C@@H](Nc3ncc(Cl)c(-c4c[nH]c5ccccc45)n3)C2)cc1 [THZ-531]	indiscriminate proliferation inhibitory activity on both normal and tumor cells	–	–	–	–	–	–	–	–	–	–	–	–	–
CC(=O)N(c1ccc(-c2ccc(N3CCN(CC(=O)N[C@H](C(=O)N4C[C@H](O)C[C@H]4C(=O)N[C@@H](C)c4ccc(-c5scnc5C)cc4)C(C)(C)C)CC3)nc2)cc1)[C@H]1CC[C@H](Nc2ncc3ccccc3n2)CC1 [Formula 147, (2S,4R)-1-((S)-3,3-dimethyl-2-(2-(4-(5-(4-(N-((1R,4R)-4-(quinazolin-2-ylamino)cyclohexyl)acetamido)phenyl)pyridin-2-yl)piperazin-1-yl)acetamido)butanoyl)-4-hydroxy-N—((S)-1-(4-(4-methylthiazol-5-yl)phenyl)ethyl)pyrrolidine-2-carboxamide]	–	weak or no inhibitory effect on the hERG channel	can reverse the degradation of CDK12/13 and CCNK	can reverse the degradation of CDK12/13 and CCNK	can reverse the degradation of CDK12/13 and CCNK	2.58 h	< 100 nM	15 nM	10 nM	9 nM	< 100 nM	13 nM	17 nM	15 nM
